# According to patent US4536396A, “Synergistic sweetening compositions” (Pfizer Inc., priority 1983, dated 1985):
# Legend:
# [1] = Taste quality and sweetening potency in typically prepared edible products (Table III)
# From the text: The ultimate compositions for edible use, or for use as oral hygienic products or as formulated medicinal agents, are readily prepared, using methods generally known in the food technology and pharmaceutical arts. The taste quality of such typically prepared edible products prepared with sucrose, with AS-K alone and with one of present combinations as sweetening agent are summarized in Table III.
# [2] = Sensory analysis of relative sweetness intensity and taste quality of aqueous solutions compared with sucrose solutions
# Description: The relative sweetness intensity and quality of CP-54,802, AS-K and mixtures of CP-54,802 and AS-K were determined by sensory analysis. These determinations were carried out in a facility designed for controlled tasting, flavor research and evaluation of food additives, including a separate preparation room and individual tasting booths with complete air-conditioning, controlled lighting, running water and a sink for expectoration.
# Aqueous solutions of sucrose were prepared at concentrations (w/w) of 2, 3, 4, 5, 6, 7, 8, 9, 10, 11 and 12% along with a sample of one of the test compounds at the levels specified in the test experiments. A beaker containing a solution of the test compound identified only by a coded digit was submitted to the taster by a co-worker along with a beaker containing the above sucrose solutions. The sweetness intensity of the test compound was compared with one or more of the sucrose control solutions to determine whether that particular sucrose reference sample was of lesser, greater or equal sweetness. The taste quality of the test sample was then characterized by comparison with the sucrose solution. In some instances a reference aqueous solution containing either CP-54,802 and/or AS-K alone was also used to characterize the taste quality of mixture of CP-54,802 and AS-K.
# After selecting the particular sucrose solution equal in sweetness to the AS-K solution, subsequent test comparisons of the AS-K and sucrose solution at closest sweetness intensity were performed to recheck the intensity value and to characterize the taste quality of the AS-K. By this means, the following results were obtained: […]
# [3] = cited from earlier work
# [4] = at 2% sucrose equivalent in water
# [5] = at 3% sucrose equivalent in water
# [6] = at 4% sucrose equivalent in water
# [7] = at 5% sucrose equivalent in water
# [8] = at 6% sucrose equivalent in water
# [9] = at 7% sucrose equivalent in water, AS-K values above 6% only approximate
# [10] = at 8% sucrose equivalent in water, AS-K values above 6% only approximate
# [11] = at 9% sucrose equivalent in water, AS-K values above 6% only approximate
# [12] = at 10% sucrose equivalent in water, AS-K values above 6% only approximate
# [13] = compared to 10% sucrose in water
# [14] = equal in sweetness to 2% sucrose (w/w) in water
# [15] = equal in sweetness to 3% sucrose (w/w) in water
# [16] = equal in sweetness to 4% sucrose (w/w) in water
# [17] = equal in sweetness to 5% sucrose (w/w) in water
# [18] = equal in sweetness to 6% sucrose (w/w) in water
# [19] = equal in sweetness to 7% sucrose (w/w) in water
# [20] = equal in sweetness to 8% sucrose (w/w) in water
# [21] = equal in sweetness to 9% sucrose (w/w) in water
# [22] = equal in sweetness to 10% sucrose (w/w) in water
SMILES,Potency of Sweetening Agent in Product ([1]; 7-Up-type carbonated drink),Potency of Sweetening Agent in Product ([1]; Cola carbonated drink),Potency of Sweetening Agent in Product ([1]; Lemonade drink),Potency of Sweetening Agent in Product ([1]; Orange gelatin dessert),Potency of Sweetening Agent in Product ([1]; Peppermint hard candy),Potency of Sweetening Agent in Product ([1]; Strawberry drink),Potency of Sweetening Agent in Product ([1]; Vanilla cakes),Potency of Sweetening Agent in Product ([1]; Vanilla frozen dessert),Potency of Sweetening Agent in Product ([1]; Vanilla pudding),"Potency Sucrose = 1 [2, 4]","Potency Sucrose = 1 [2, 5]","Potency Sucrose = 1 [2, 6]","Potency Sucrose = 1 [2, 7]","Potency Sucrose = 1 [2, 8]","Potency Sucrose = 1 [2, 9]","Potency Sucrose = 1 [2, 10]","Potency Sucrose = 1 [2, 11]","Potency Sucrose = 1 [2, 12]","Equivalent Concentration % [2, 14] [%]","Equivalent Concentration % [2, 15] [%]",other results
"CC1=CC(=O)NS(=O)(=O)O1 [AS-K, 6-Methyl-1,2,3-oxathiazin-4(3H)-one-2,2-dioxide]",< 90,90,< 90,< 90,< 90,< 90,90,< 90,< 90,250 Sucrose = 1,200 Sucrose = 1,160 Sucrose = 1,110 Sucrose = 1,90 Sucrose = 1,90 Sucrose = 1,90 Sucrose = 1,85 Sucrose = 1,80 Sucrose = 1,0.0080,0.0150,"Relative sweetness ([2]; at concentrations equivalent to 6-10% sucrose): ≤ 90; Concentration (g/100 ml) ≡ 10% Sucrose [2, 13]: 0.1250 g/100 ml; Potency of Mixture [2, 13]: 80; Equivalent Concentration % [2, 16]: 0.0250%; Equivalent Concentration % [2, 17]: 0.0455%; Equivalent Concentration % [2, 18]: 0.0667%; Equivalent Concentration % [2, 19]: 0.0777%; Equivalent Concentration % [2, 20]: 0.0889%; Equivalent Concentration % [2, 21]: 0.1059%; Equivalent Concentration % [2, 22]: 0.1250%; Sweetness relative to cane sugar ([3]; in water at concentrations equivalent in sweetness to a 4% solution of cane sugar): 130; Concentration equivalent to 4% cane sugar ([3]; in water): 0.031%"
"C[C@@H](NC(=O)[C@@H](N)CC(=O)O)C(=O)NC1C(C)(C)SC1(C)C [CP-54,802, 3-(L-Aspartyl-D-alaninamido)-2,2,4,4-tetramethylthietane]",,,,,,,,,,"2,900 Sucrose = 1","2,850 Sucrose = 1","2,800 Sucrose = 1","2,500 Sucrose = 1","2,300 Sucrose = 1","2,250 Sucrose = 1","2,112 Sucrose = 1","2,075 Sucrose = 1","2,000 Sucrose = 1",0.00069,0.00105,"Equivalent Concentration % [2, 16]: 0.00143%; Equivalent Concentration % [2, 17]: 0.002%; Equivalent Concentration % [2, 18]: 0.0026%; Equivalent Concentration % [2, 19]: 0.0031%; Equivalent Concentration % [2, 20]: 0.00378%; Equivalent Concentration % [2, 21]: 0.0043%; Equivalent Concentration % [2, 22]: 0.005%"
"OC[C@H]1O[C@@](CO)(O[C@H]2O[C@H](CO)[C@@H](O)[C@H](O)[C@H]2O)[C@@H](O)[C@@H]1O [Sucrose, reference compound]",1,1,1,1,1,1,1,1,1,,,,,,,,,,,,
